These results are taken from patent US6923951B2, “Non-invasive localization of a light-emitting conjugate in a mammal” (priority 1994, dated 2005).

In data set [1] the test system is dermal cells in transgenic mice. The protocol:
In order to optimize delivery of substrate, the substrate was topically delivered to dermal cells. The HIV LTR was induced in the skin of mice with twice daily treatments of DMSO over the entire surface of the back and the right ear for two consecutive days. Substrate was applied to the skin in solutions prepared in DMSO. Concentrations included 200 mM, 100 mM, 50 mM, 25 mM, and 12.5 mM. 5 μl of each concentration were spotted, in quadruplicate, on the backs using a multichannel pipette with the highest concentrations near the head. 5 μl of the 50 mM solution was applied to each ear. 2 min. after application the animal was imaged as described in FIG. 12. […] Solutions of 25% H2O in DMSO to 100% H2O were tested.
The experiment of induction of luciferase expression in ears and systemic luciferin delivery of Example 14 was repeated with topical administration of substrate in 100% DMSO (FIG. 15). […] See, FIGS. 13 and 15.

The next data set relates to HIV LTR. The data set can be described thus: DMSO induction of HIV LTR-driven luciferase expression in transgenic mice. Type of data set: in vivo, mouse. An excerpt: Transgenic mice containing a construct composed of the regulatory portion of the HIV LTR (U3 region) upstream of the coding sequence of the firefly luciferase gene were generated and evaluated for the emission of photons after transmission through tissues. A diagram of the construct is shown at the bottom of FIG. 13. Numbers along the construct indicate nucleotide positions relative to the start of transcription. Sequences matching known motifs of cellular transcription factors are indicated with the names of the factors. Transcription from the HIV LTR was activated in the right ear of each two animals with a single topical application of dimethyl sulfoxide (DMSO). The animal on the left in FIG. 13 was given 150 μl of an aqueous solution of the substrate luciferin (50 mg/ml) via intraperitoneal (i.p.) injection. The animal on the right was not given substrate. 20 min. post treatment with substrate the animals were imaged as described for the plate in FIG. 12 with a 20 min. integration time. […] This technology allows for the temporal and spatial analyses of transcriptional activity in living animals.
The left half of the shaved dorsal surface of the transgenic animals and the left ear were treated twice daily for two days with DMSO to activate expression of the HIV-1 LTR. Luciferin was applied topically over the entire surface of the back and both ears, and animals were imaged immediately after addition of substrate.
This signal is assumed to be due to ingestion of DMSO during grooming (FIG. 17).

For a further data set, the system named is SL1344lux Salmonella. The data set can be described thus: Effects of ciprofloxacin treatment on bioluminescence from SL1344lux Salmonella in orally inoculated mice. It is filed as in vivo, Salmonella typhimurium. The protocol: Effects of Ciprofloxacin on Salmonella Infection. […] Mice are orally inoculated with SL1344lux and treated with […] of ciprofloxacin, an antibiotic effective against Salmonella infections. The mice are imaged at selected time periods following treatment, and the extent of infection is quantitated by measuring photon emission. Photon emission in treated mice is compared to values before the initiation of treatment, and to values from control mice that had been infected, but not treated. Results from one such experiment are shown in FIGS. 11A, 11B, 11C, 11D, and 11E and discussed in Example 10.
Animals or objects to be imaged were immobilized in a light-tight box containing a door and a charge-coupled device (CCD) camera with a two stage microchannel intensifier head (model C2400-40, Hamamatsu). The camera was attached, via cables leading out of the box, to an “ARGUS 50” image processor (Hamamatsu).
Bioluminescence images were generated by integrating photons for a selected period of time, typically 5 minutes. […]
FIGS. 11B and 11D show composite images of representative animals from the control and treated groups, respectively, immediately before initiation of treatment of the experimental group. […] The total number of photons detected over the abdominal area were determined, normalized to the value at t=0, and plotted in FIG. 11A with respect to time post-treatment.

As to `O=C(O)[C@H]1CSC(c2nc3ccc(O)cc3s2)=N1` [luciferin], the “Bioluminescence from spots containing 200 mM luciferin” value in data set [1] (5 μl spots in DMSO on DMSO-induced back skin) was “roughly equivalent to that from the 100 mM spots”. Further, the “Bioluminescent response versus topical luciferin concentration” value in data set [1] (5 μl spots of luciferin in DMSO on DMSO-induced back skin, imaged 2 min. after application) is listed as “increase linearly over the concentrations from 12.5 mM to 100 mM”. In data set [1] (mouse, in vivo), the “Bioluminescence from solutions of luciferin containing water” value was “no detectable bioluminescence”; the “Time of peak light emission, systemic substrate” value lay in the range of 20 to 30 min; the “Time of peak light emission, topical substrate” value was “immediately after topical treatment”.

For the compound `C[S+](C)[O-]` [DMSO, dimethyl sulfoxide], in the data set on HIV LTR (animals treated with DMSO on one ear only), the “Bioluminescence from internal tissues” value is “Bioluminescence was detectable from the abdomens”. Further, the “Bioluminescence after unilateral DMSO treatment” value in the data set with HIV LTR (left half of shaved dorsal surface and left ear treated twice daily for two days, luciferin topical over back and both ears) is “Unilateral emission of bioluminescence corresponding to the induced region”. The “Bioluminescence from the DMSO-induced ear” value in the data set on HIV LTR (single topical application of DMSO on right ear, luciferin 150 μl of 50 mg/ml i.p., imaged 20 min. post substrate) was “light emission over the right ear”.

Consider `O=C(O)c1cn(C2CC2)c2cc(N3CCNCC3)c(F)cc2c1=O` [ciprofloxacin], for which the “Bioluminescence over the abdomen” value in the data set on SL1344lux Salmonella (Balb/c mice orally inoculated with SL1344lux, at 8 days p.i. 100 mg ciprofloxacin hydrochloride i.p. (3 mg/kg body weight), 5.5 h after initiation of treatment) is reported as “reduced to undetectable levels”. In addition, in the data set with SL1344lux Salmonella (mice orally inoculated with SL1344lux, treated with 100 mg of ciprofloxacin), the “Infection (photon emission) compared to time zero and to untreated control mice” value is recorded as “significantly reduced”.
